For the experiment, the target named is Human factor D (Homo sapiens (Human), UniProt P00746). In words: Human Factor D Assay. To be noted: Human factor D purified from human serum, 80 nM; substrate Z-L-Lys-SBzl with DTNB; assay of Example 8. Format: biochemical. As for the experimental part:
The assay of Example 8 was used to determine the IC50's of the compounds. Other standard factor D inhibition assays are also available.
Example 8. Human Factor D Assay
Human factor D (purified from human serum, Complement Technology, Inc.) at 80 nM final concentration is incubated with test compound at various concentrations for 5 minutes at room temperature in 50 mM Tris, 1M NaCl, pH 7.5. A synthetic substrate Z-L-Lys-SBzl and DTNB (Ellman's reagent) are added to final concentrations of 100 µM each. The increase in color is recorded at OD405 nm in a microplate in kinetic mode over 30 minutes with 30 second time points in a […]. IC50 values are calculated by non-linear regression from the percentage of inhibition of complement factor D activity as a function of test compound concentration.

Sequence of Human factor D (P00746 26-253): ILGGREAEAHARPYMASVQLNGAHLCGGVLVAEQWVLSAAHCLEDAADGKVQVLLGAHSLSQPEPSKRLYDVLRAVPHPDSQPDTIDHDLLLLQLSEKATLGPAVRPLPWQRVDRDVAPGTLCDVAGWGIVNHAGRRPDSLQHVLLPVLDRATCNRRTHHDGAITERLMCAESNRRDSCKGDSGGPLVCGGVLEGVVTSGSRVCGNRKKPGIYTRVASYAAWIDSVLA

As to `CC(=O)c1cn(CC(=O)N2C[C@H](F)C[C@H]2C(=O)NCc2cccc(Cl)c2F)c2cc(OCCC3CC3)ccc12` [Compound 5, (2S,4R)-1-(2-(3-acetyl-6-(2-cyclopropylethoxy)-1H-indol-1-yl)acetyl)-N-(3-chloro-2-fluorobenzyl)-4-fluoropyrrolidine-2-carboxamide], the concentration for half-maximal inhibition (IC50) (commonly the concentration at which inhibition is half-maximal) is less than 1000 nM. With `CCOP(=O)(COc1ccc2c(C(C)=O)cn(CC(=O)N3C[C@H](F)C[C@H]3C(=O)N[C@H](C)c3cccc(Cl)c3F)c2c1)OCC` [Compound 18, diethyl (3-acetyl-1-(2-((2S,4R)-2-((R)-1-(3-chloro-2-fluorophen-yl)ethylcarbamoyl)-4-fluoropyrrolidin-1-yl)-2-oxoethyl)-1H-indol-6-yloxy)methylphosphonate] the figure was less than 1000 nM; with `CC(=O)c1cn(CC(=O)N2C[C@H](F)C[C@H]2C(=O)Nc2cccc(-c3ccccc3Cl)c2F)c2ccc(Oc3ncc(C)cn3)cc12` [Compound 40, (2S,4R)-1-(2-(3-acetyl-5-(5-methylpyrimidin-2-yloxy)-1H-indol-1-yl)acetyl)-N-(2′-chloro-2-fluorobiphenyl-3-yl)-4-fluoropyrrolidine-2-carboxamide], less than 1000 nM. `CC(=O)c1cn(CC(=O)N2C[C@H](F)C[C@H]2C(=O)Nc2cccc(OC(F)(F)F)c2F)c2cc(OCC3CC3)ccc12` [Compound 4, (2S,4R)-1-(2-(3-acetyl-6-(cyclopropylmethoxy)-1H-indol-1-yl)acetyl)-4-fluoro-N-(2-fluoro-3-(trifluoromethoxy)phen-yl)pyrrolidine-2-carboxamide] registered an IC50 of less than 1000 nM. With `CC(=O)c1cn(CC(=O)N2C[C@H](F)C[C@H]2C(=O)NCc2cccc(Cl)c2F)c2cc(OS(=O)(=O)C(F)(F)F)ccc12` [Compound 2, 3-acetyl-1-(2-((2S,4R)-2-(3-chloro-2-fluorobenzylcarbamoyl)-4-fluoropyrrolidin-1-yl)-2-oxoethyl)-1H-indol-6-yl trifluoromethanesulfonate] the figure was less than 1000 nM. As to `CC(=O)c1cn(CC(=O)N2C[C@H](F)C[C@H]2C(=O)NCc2cccc(Cl)c2F)c2ccc(OCP(=O)(O)O)cc12` [Compound 11, (3-acetyl-1-(2-((2S,4R)-2-(3-chloro-2-fluorobenzylcarbamoyl)-4-fluoropyrrolidin-1-yl)-2-oxoethyl)-1H-indol-5-yloxy)methylphosphonic acid], the IC50 was less than 1000 nM. With `CCC(=O)OC(OP(=O)(COc1ccc2c(C(C)=O)cn(CC(=O)N3C[C@H](F)C[C@H]3C(=O)NCc3cccc(Cl)c3F)c2c1)OC(OC(=O)CC)C(C)C)C(C)C` (stereo partly drawn) [Compound 23, 1,1′-(((3-acetyl-1-(2-((2S,4R)-2-(3-chloro-2-fluorobenzylcarbamoyl)-4-fluoropyrrolidin-1-yl)-2-oxoethyl)-1H-indol-6-yloxy)methyl)phosph-oryl)bis(oxy)bis(2-methylpropane-1,1-diyl) dipropionate] the figure was less than 1000 nM; with `CC(=O)c1cn(CC(=O)N2C[C@H](F)C[C@H]2C(=O)NCc2cccc(Cl)c2F)c2cc(OCP(=O)(O)O)ccc12` [Compound 8, (3-acetyl-1-(2-((2S,4R)-2-(3-chloro-2-fluorobenzylcarbamoyl)-4-fluoropyrrolidin-1-yl)-2-oxoethyl)-1H-indol-6-yloxy)methylphosphonic acid], less than 1000 nM.

Regarding `CC(=O)c1cn(CC(=O)N2C[C@H](F)C[C@H]2C(=O)Nc2cccc(Br)n2)c2ccc(Oc3ncccn3)cc12` [Compound 39, (2S,4R)-1-(2-(3-acetyl-5-(pyrimidin-2-yloxy)-1H-indol-1-yl)acetyl)-N-(6-bromopyridin-2-yl)-4-fluoropyrrolidine-2-carboxamide], the IC50 was less than 1000 nM.

For the compound `CC(=O)c1cn(CC(=O)N2C[C@H](F)C[C@H]2C(=O)NCc2cccc(Cl)c2F)c2cc(OCP(=O)(N[C@@H](C)C(=O)OC(C)C)N[C@@H](C)C(=O)OC(C)C)ccc12` [Compound 24, (2S,2′S)-isopropyl 2,2′-(((3-acetyl-1-(2-((2S,4R)-2-(3-chloro-2-fluorobenzylcarbamoyl)-4-fluoropyrrolidin-1-yl)-2-oxoethyl)-1H-indol-6-yloxy)methyl)phosph-oryl)bis(azanediyl)di-propanoate], the concentration for half-maximal inhibition (IC50) is less than 1000 nM. With `CC(=O)c1cn(CC(=O)N2C[C@H](F)C[C@H]2C(=O)NCc2cccc(Cl)c2F)c2cc(OCS(N)(=O)=O)ccc12` [Compound 17, (2S,4R)-1-(2-(3-acetyl-6-(sulfamoylmethoxy)-1H-indol-1-yl)acetyl)-N-(3-chloro-2-fluorobenzyl)-4-fluoropyrrolidine-2-carboxamide] the figure was less than 1000 nM. With `NC(=O)c1nn(CC(=O)N2C[C@H](F)C[C@H]2C(=O)Nc2cccc(-c3ccccc3Cl)c2F)c2ccc(Oc3cncnc3)cc12` [Compound 31, 1-(2-((2S,4R)-2-(2′-chloro-2-fluorobiphenyl-3-ylcarbamoyl)-4-fluoropyrrolidin-1-yl)-2-oxoethyl)-5-(pyrimidin-5-yloxy)-1H-indazole-3-carboxamide] the figure was less than 1000 nM; with `CC(=O)c1cn(CC(=O)N2C[C@H](F)C[C@H]2C(=O)NCc2cccc(Cl)c2F)c2ccc(OS(=O)(=O)C(F)(F)F)cc12` [Compound 9, 3-acetyl-1-(2-((2S,4R)-2-(3-chloro-2-fluorobenzylcarbamoyl)-4-fluoropyrrolidin-1-yl)-2-oxoethyl)-1H-indol-5-yl trifluoromethanesulfonate], less than 1000 nM. With `CC(=O)c1cn(CC(=O)N2C[C@H](F)C[C@H]2C(=O)Nc2cccc(-c3ccccc3Cl)c2F)c2ccc(Oc3ncc(F)cn3)cc12` [Compound 37, (2S,4R)-1-(2-(3-acetyl-5-(5-fluoropyrimidin-2-yloxy)-1H-indol-1-yl)acetyl)-N-(2′-chloro-2-fluorobiphenyl-3-yl)-4-fluoropyrrolidine-2-carboxamide] the figure was less than 1000 nM; with `CC(=O)c1cn(CC(=O)N2C[C@H](F)C[C@H]2C(=O)NCc2cccc(Cl)c2F)c2cc(OCP(=O)(O)OCOC(=O)OC(C)C)ccc12` [Compound 13, (((3-acetyl-1-(2-((2S,4R)-2-(3-chloro-2-fluorobenzylcarbamoyl)-4-fluoropyrrolidin-1-yl)-2-oxoethyl)-1H-indol-6-yloxy)methyl)(hydro-xy)phosphoryloxy)meth-yl isopropyl carbonate], less than 1000 nM; with `CC(=O)c1cn(CC(=O)N2C[C@H](F)C[C@H]2C(=O)Nc2cccc(-c3ccccc3Cl)c2F)c2ccc(Oc3cnc(C#N)nc3)cc12` [Compound 36, (2S,4R)-1-(2-(3-acetyl-5-(2-cyanopyrimidin-5-yloxy)-1H-indol-1-yl)acetyl)-N-(2′-chloro-2-fluorobiphenyl-3-yl)-4-fluoropyrrolidine-2-carboxamide], less than 1000 nM.

As to `CC(=O)c1cn(CC(=O)N2C[C@H](F)C[C@H]2CNS(=O)(=O)c2cccc(Cl)c2F)c2cc(OCP(=O)(O)O)ccc12` [Compound 22, (3-acetyl-1-(2-((2S,4R)-2-((3-chloro-2-fluoro-phenylsulfonamido)meth-yl)-4-fluoropyrrolidin-1-yl)-2-oxoethyl)-1H-indol-6-yloxy)methylphosphonic acid], the half-maximal inhibitory concentration (IC50) is less than 1000 nM.

These data come from patent publication US9732104B2, “Ether compounds for treatment of complement mediated disorders” (Achillion Pharmaceuticals, Inc., priority 2014, dated 2017).
